According to US20140357512A1, “HISTONE DEACETYLASE (HDAC) BIOMARKERS IN MULTIPLE MYELOMA” (priority 2013, published 2014):

Test system: human myeloma cell line MM.1S
Assay: SILAC acetylated-lysine peptide profiling, HDAC inhibitor vs DMSO (light/heavy ratio)
Format: cell-based
Source text: An embodiment of the invention comprises utilizing the SILAC method in order to quantitate changes in protein expression between two or more populations of cells. The SILAC method is a technique based on mass spectrometry that detects differences in protein abundance among samples using non-radioactive isotopic labeling. The SILAC method is known in the art, and described in detail in Ong et al., “Stable Isotope Labeling by Amino Acids in Cell Culture, SILAC, as a Simple and Accurate Approach to Expression Proteomics”, Molecular & Cellular Proteomics, vol. 1, pp. 376-386 (2002), which is incorporated herein by reference in its entirety.
Briefly, the SILAC method involves growing two populations of cells in cell culture. The first population of cells is grown in growth media containing normal amino acids (“normal media”). The second population of cells is grown in media lacking a standard essential amino acid (such as lysine), but is then supplemented with a non-radioactive, isotopically labeled form of that essential amino acid (such as lysine labeled with ^13C atoms, rather than normal ^12C atoms), which is called “heavy media”. When the two populations of cells are each growing in the medium, they incorporate the amino acids into all of their proteins. The growth of cells maintained in the heavy media is no different from that in normal media. All peptides containing the heavy amino acids are heavier than their normal counterparts. The cells from each of the two populations of cells are lysed. The lysates from each of the two cell populations are then combined. The combined cell lysates are then analyzed by mass spectrometry. Pairs of chemically identical peptides of different stable isotope composition can be differentiated in a mass spectrometer due to their difference in mass. The ratio of peak intensities in the mass spectrum for such peptide pairs reflects the abundance ratio for the two proteins.
This example describes SILAC studies that were performed to compare the effects of three different HDAC inhibitors (Compound A, Compound B, and tubastatin A) to a control on a human multiple myeloma cell line. The HDAC inhibitors were also compared amongst themselves to determine differences in their effects.
A human myeloma cell line MM.1S was grown using either ^12C (light) or ^13C (heavy) lysine containing culture medium. The “heavy” cells were treated with DMSO as the control, and the “light” cells were treated with a single HDAC inhibitor at 37° C. for 6 hours. The heavy and light cells were lysed, and the lysates were mixed in 1:1 ratio and digested with the protease trypsin. The acetylated lysine containing peptides (due to the action of the HDAC inhibitor) in the digested peptide pool were captured by a non-specific anti-acetylated lysine antibody cocktail (the antibodies identify both light and heavy acetylated peptides), and subjected to mass spectrometry analysis in order to identify thousands of individual peptides.
Thousands of peptides were identified in pairs (^12C and ^13C) due to their known mass differences. The amino acid sequence and quantitative ratio (Light/Heavy) of a given peptide in two differentially treated cell lysates were then determined and annotated with their possible protein (gene) sources.
As stated above, three HDAC inhibitors (Compound A, Compound B, and Tubastatin A) were used. Thus, the SILAC method was performed three times, with a different HDAC inhibitor compared to a control each time. Accordingly, there are three pairs of quantitative data in the table below, i.e., Compound A:DMSO, Compound B:DMSO, and Tubastatin A:DMSO. A cut-off of 1.30 fold of change (increase or decrease) was then used to determine “changed” or “+” in the table, and any peptides with a fold of change less than 1.3 fold were determined to be “unchanged” or “0” in the table. Those peptides that were not identified were marked as “NA” in the table. […]

## O=C(NO)c1cnc(NC2(c3cccc(F)c3)CCCCC2)nc1 [Compound B, 2-((1-(3-fluorophenyl)cyclohexyl)amino)-N-hydroxypyrimidine-5-carboxamide]
DDX17 [132], log 2 scale, drug vs DMSO
  L/H ratio of acetylated peptide FEK(ac)[…] (SEQ ID NO: 32): 0.00
DK(ac)WLCPLSGK (SEQ ID NO: 452), Isoform 2 of Serrate RNA effector molecule homolog [712], SRRT
  L/H ratio of acetylated peptide: 0.42 log 2
DK(ac)[…] (SEQ ID NO: 456), F-box-like/WD repeat-containing protein TBL1XR1 [102], TBL1XR1
  L/H ratio of acetylated peptide: 0.86 log 2
DLAT [466], log 2 scale, drug vs DMSO
  L/H ratio of acetylated peptide ELNK(ac)ILEGR (SEQ ID NO: 2): 0.47
DLEK(ac)WQNNLLPSR (SEQ ID NO: 211), 40S ribosomal protein 515a [88], RPS15A
  light to heavy ratio (L/H ratio) of acetylated peptide, log 2 scale: 0.00
DLMTDLK(ac)SEISGDLAR (SEQ ID NO: 129), Annexin A6 [418], ANXA6
  light to heavy ratio (L/H ratio) of acetylated peptide, log 2 scale: 0.00
DNA topoisomerase 1 [642], TOP1, drug:DMSO
  light to heavy ratio (L/H ratio) of acetylated peptide TFEK(ac)SMMNLQTK (SEQ ID NO: 354): 0.46 log 2
DNAJB11 [247], log 2 scale, drug vs DMSO
  L/H ratio of acetylated peptide VVK(ac)HPIFER (SEQ ID NO: 35): 0.00
DVFNK(ac)GYGFGMVK (SEQ ID NO: 467), Isoform 1 of Voltage-dependent anion-selective channel protein 3 [20], VDAC3
  L/H ratio of acetylated peptide: −0.73 log 2
DVK(ac)FGADAR (SEQ ID NO: 173), 60 kDa heat shock protein mitochondrial [31], HSPD1
  light to heavy ratio (L/H ratio) of acetylated peptide, log 2 scale: 0.00
DVTK(ac)AMDEK (SEQ ID NO: 426), Isoform 2 of 6-phosphofructokinase muscle type [329], PFKM
  L/H ratio of acetylated peptide: 0.53 log 2
DYNC1H1 [4283], log 2 scale, drug vs DMSO
  L/H ratio of acetylated peptide SFDSEFK(ac)LACK (SEQ ID NO: 8): 0.51
Dolichyl-diphosphooligosaccharide--protein glycosyltransferase subunit 1 precursor [626], RPN1, drug:DMSO
  light to heavy ratio (L/H ratio) of acetylated peptide DTYIENEK(ac)LISGK (SEQ ID NO: 352): 0.77 log 2
Dynein light chain 1 cytoplasmic [36], gene DYNLL1, inhibitor:DMSO
  light to heavy ratio (L/H ratio) of acetylated peptide YNIEK(ac)DIAAHIK (SEQ ID NO: 553): 0.00 log 2
Dynein light chain 2 cytoplasmic [36], DYNLL2, drug:DMSO
  light to heavy ratio (L/H ratio) of acetylated peptide YNIEK(ac)DIAAYIK (SEQ ID NO: 331): −0.45 log 2
EFTK(ac)LEEVLTNK (SEQ ID NO: 400), Glutathione S-transferase omega-1 [152], GSTO1
  L/H ratio of acetylated peptide: −0.60 log 2
EP300 [1558:1560], log 2 scale, drug vs DMSO
  L/H ratio of acetylated peptide TSK(ac)NK(ac)SSLSR (SEQ ID NO: 14): 0.43
ESESVDK(ac)VMDQK (SEQ ID NO: 404), Isoform 1 of Heterogeneous nuclear ribonucleoprotein D0 [153], HNRNPD
  L/H ratio of acetylated peptide: −0.53 log 2
EVHK(ac)[…] (SEQ ID NO: 181), Isoform 1 of L-lactate dehydrogenase A chain [232], LDHA
  light to heavy ratio (L/H ratio) of acetylated peptide, log 2 scale: 0.00
EVQTNDLK(ac)EVVNK (SEQ ID NO: 223), 40S ribosomal protein S3a [182], SNORD73A, RPS3A
  light to heavy ratio (L/H ratio) of acetylated peptide, log 2 scale: 0.00
Elongation factor 2 [638], EEF2, drug:DMSO
  light to heavy ratio (L/H ratio) of acetylated peptide YLAEK(ac)YEWDVAEAR (SEQ ID NO: 332): −0.40 log 2
Elongation factor G 2 mitochondrial precursor [265], gene GFM2, inhibitor:DMSO
  light to heavy ratio (L/H ratio) of acetylated peptide TFK(ac)GVVDVVMK (SEQ ID NO: 550): 0.00 log 2
Endoplasmin [410], HSP90B1, drug:DMSO
  light to heavy ratio (L/H ratio) of acetylated peptide KSDYIK(ac)LYVR (SEQ ID NO: 315): 0.00 log 2
Endoplasmin[ 142], HSP90B1, drug:DMSO
  light to heavy ratio (L/H ratio) of acetylated peptide EK(ac)[…] (SEQ ID NO: 314): 0.00 log 2
Endoplasmin[ 356], HSP90B1, drug:DMSO
  light to heavy ratio (L/H ratio) of acetylated peptide EVEEDEYK(ac)AFYK (SEQ ID NO: 261): 0.00 log 2
Eukaryotic translation initiation factor 2 subunit 3 [312], EIF2S3, drug:DMSO
  light to heavy ratio (L/H ratio) of acetylated peptide LMCK(ac)PIFSK (SEQ ID NO: 335): 0.49 log 2
Eukaryotic translation initiation factor 3 subunit A [68], gene EIF3A, inhibitor:DMSO
  light to heavy ratio (L/H ratio) of acetylated peptide SHLAK(ac)EGLYQYK (SEQ ID NO: 533): 0.00 log 2
FAFK(ac)EVEVQAK (SEQ ID NO: 397), Putative rRNA methyltransferase 3 [218], FTSJ3
  L/H ratio of acetylated peptide: 0.74 log 2
FEDENFHYK(ac)HDR (SEQ ID NO: 431), Peptidyl-prolyl cis-trans isomerase D [111], PPID
  L/H ratio of acetylated peptide: 0.46 log 2
FGIAAK(ac)YMLDCR (SEQ ID NO: 468), Isoform 1 of Voltage-dependent anion-selective channel protein 3 [224], VDAC3
  L/H ratio of acetylated peptide: 0.43 log 2
FK(ac)ECLDK (SEQ ID NO: 420), Isoform 2 of N-alpha-acetyltransferase 15 NatA auxiliary subunit [307], NAA15
  L/H ratio of acetylated peptide: 0.60 log 2
FLEQQNK(ac)[…] (SEQ ID NO: 241), Vimentin [129], VIM
  light to heavy ratio (L/H ratio) of acetylated peptide, log 2 scale: 0.00
